From paper PMC8364686, “Safety, tolerability, pharmacokinetics and pharmacodynamics of single oral doses of BI 187004, an inhibitor of 11beta-hydroxysteroid dehydrogenase-1, in healthy male volunteers with overweight or obesity” (Clinical Diabetes and Endocrinology, 2021)

Experiment: Plasma pharmacokinetics of BI 187004 after single oral doses (LC–MS/MS)
Settings: male, human, plasma, po; for concentration at 6 h: planned time 6 h; for concentration at 8 h: planned time 8 h; for concentration at 10 h: planned time 10 h; for concentration at 12 h: planned time 12 h; for concentration at 36 h: planned time 36 h; for concentration at 48 h: planned time 48 h; for concentration at 72 h: planned time 72 h; for concentration at 96 h: planned time 96 h; for concentration at 0.5 h: planned time 0.5 h; for concentration at 1 h: planned time 1 h; for concentration at 1.5 h: planned time 1.5 h; for concentration at 2 h: planned time 2 h; for concentration at 2.5 h: planned time 2.5 h; for concentration at 3 h: planned time 3 h; for concentration at 4 h: planned time 4 h; for concentration at 5 h: planned time 5 h
[1] = 20 mg, BI 187004 plasma concentrations, 20 mg single oral, gMean
[2] = 20 mg, BI 187004 plasma concentrations, 20 mg single oral, Max
[3] = 20 mg, BI 187004 plasma concentrations, 20 mg single oral, Mean
[4] = 20 mg, BI 187004 plasma concentrations, 20 mg single oral, Median
[5] = 20 mg, BI 187004 plasma concentrations, 20 mg single oral, Min
[6] = 40 mg, BI 187004 plasma concentrations, 40 mg single oral, Max
[7] = 40 mg, BI 187004 plasma concentrations, 40 mg single oral, Mean
[8] = 40 mg, BI 187004 plasma concentrations, 40 mg single oral, Median
[9] = 40 mg, BI 187004 plasma concentrations, 40 mg single oral, Min
[10] = 40 mg, BI 187004 plasma concentrations, 40 mg single oral, gMean
[11] = 40 mg, BI 187004 plasma concentrations, 40 mg single oral, individual subjects

Procedure: This was a randomized, double-blind, placebo-controlled, single rising dose study conducted at a single center in Germany. […] Follow-up on an ambulatory basis was performed between 11 and 15 days after study drug administration. […] At the time of use the oral solution for dosing was prepared using the PFOS and a co-supplied aqueous solvent containing HP-beta-cyclodextrin 100 mg/mL. The lowest dose level solutions were prepared by further dilution of the lower concentration solution with additional solvent.
For each accepted run, the acceptance criteria for the calibration standards and quality controls were met.

N#Cc1ccc2c(c1)[C@H]1CCCN(C(=O)c3ccc4[nH]cnc4c3)[C@H]1C2 [BI 187004]
concentration at 6 h [1]: 547 nM
concentration at 8 h [2]: 645 nM
concentration at 8 h [3]: 464 nM
concentration at 8 h [4]: 398 nM
concentration at 8 h [5]: 354 nM
concentration at 8 h [1]: 449 nM
concentration at 8 h (20 mg, BI 187004 plasma concentrations, 20 mg single oral, individual subjects): 645 nM
concentration at 10 h [2]: 529 nM
concentration at 10 h [3]: 398 nM
concentration at 10 h [4]: 398 nM
concentration at 10 h [5]: 253 nM
concentration at 10 h [1]: 382 nM
concentration at 12 h [2]: 457 nM
concentration at 12 h [3]: 331 nM
concentration at 12 h [4]: 311 nM
concentration at 12 h [5]: 221 nM
concentration at 12 h [1]: 316 nM
concentration at 24 h (20 mg, BI 187004 plasma concentrations, 20 mg single oral, planned time 24 h, Max): 353 nM
concentration at 24 h (20 mg, BI 187004 plasma concentrations, 20 mg single oral, planned time 24 h, Mean): 187 nM
concentration at 24 h (20 mg, BI 187004 plasma concentrations, 20 mg single oral, planned time 24 h, Median): 155 nM
concentration at 24 h (20 mg, BI 187004 plasma concentrations, 20 mg single oral, planned time 24 h, Min): 85.8 nM
concentration at 24 h (20 mg, BI 187004 plasma concentrations, 20 mg single oral, planned time 24 h, gMean): 161 nM
concentration at 36 h [2]: 145 nM
concentration at 36 h [3]: 67.3 nM
concentration at 36 h [4]: 51.1 nM
concentration at 36 h [5]: 27.8 nM
concentration at 36 h [1]: 55.4 nM
concentration at 48 h [2]: 104 nM
concentration at 48 h [3]: 45.6 nM
concentration at 48 h [4]: 34.4 nM
concentration at 48 h [5]: 15.8 nM
concentration at 48 h [1]: 35.9 nM
concentration at 72 h [2]: 43.9 nM
concentration at 72 h [3]: 20.5 nM
concentration at 72 h [4]: 16.4 nM
concentration at 72 h [5]: 6.98 nM
concentration at 72 h [1]: 16.5 nM
concentration at 96 h [2]: 18.2 nM
concentration at 96 h [3]: 10.4 nM
concentration at 96 h [4]: 9.48 nM
concentration at 96 h [5]: 5.78 nM
concentration at 96 h [1]: 9.42 nM
concentration at 24 h (20 mg, C24 gMean (%gCV), 20 mg single oral dose): 161 nM
AUC(0-inf) (40 mg): 25.9 µM·h
AUC(0-t) (40 mg): 19.9 µM·h
Cmax (40 mg): 2210 nM
Tmax (40 mg): 1 h
Vd/F (40 mg): 123 L
half-life (40 mg): 18.9 h
concentration at 0.5 h [6]: 2530 nM
concentration at 0.5 h [7]: 1760 nM
concentration at 0.5 h [8]: 1980 nM
concentration at 0.5 h [9]: 487 nM
concentration at 0.5 h [10]: 1520 nM
concentration at 1 h [6]: 2820 nM
concentration at 1 h [7]: 2170 nM
concentration at 1 h [8]: 2410 nM
concentration at 1 h [9]: 974 nM
concentration at 1 h [10]: 2050 nM
concentration at 1.5 h [6]: 2610 nM
concentration at 1.5 h [7]: 1950 nM
concentration at 1.5 h [8]: 2160 nM
concentration at 1.5 h [9]: 1020 nM
concentration at 1.5 h [10]: 1870 nM
concentration at 2 h [6]: 2410 nM
concentration at 2 h [7]: 1760 nM
concentration at 2 h [8]: 1860 nM
concentration at 2 h [9]: 1040 nM
concentration at 2 h [10]: 1700 nM
concentration at 2.5 h [6]: 2180 nM
concentration at 2.5 h [7]: 1750 nM
concentration at 2.5 h [8]: 1870 nM
concentration at 2.5 h [9]: 1160 nM
concentration at 2.5 h [10]: 1710 nM
concentration at 2.5 h [11]: 2180 nM
concentration at 3 h [6]: 1810 nM
concentration at 3 h [7]: 1530 nM
concentration at 3 h [8]: 1560 nM
concentration at 3 h [9]: 1130 nM
concentration at 3 h [10]: 1510 nM
concentration at 3 h [11]: 1680 nM
concentration at 4 h [6]: 1700 nM
concentration at 4 h [7]: 1460 nM
concentration at 4 h [8]: 1530 nM
concentration at 4 h [9]: 1020 nM
concentration at 4 h [10]: 1440 nM
concentration at 4 h [11]: 1640 nM
concentration at 5 h [6]: 1610 nM
concentration at 5 h [7]: 1320 nM
concentration at 5 h [8]: 1350 nM
concentration at 5 h [9]: 888 nM
concentration at 5 h [10]: 1290 nM
concentration at 5 h [11]: 1440 nM
concentration at 6 h [6]: 1400 nM
concentration at 6 h [7]: 1120 nM
concentration at 6 h [8]: 1130 nM
concentration at 6 h [9]: 736 nM
concentration at 6 h [10]: 1090 nM
concentration at 6 h [11]: 1230 nM
concentration at 8 h [6]: 1190 nM
concentration at 8 h [7]: 951 nM
concentration at 8 h [8]: 987 nM
concentration at 8 h [9]: 606 nM
concentration at 8 h [10]: 929 nM
concentration at 8 h [11]: 1000 nM
